Measured values published in BindingDB's records for patent US11220486 (LA JOLLA INSTITUTE OF ALLERGY & IMMUNOLOGY; SANFORD BURNHAM …, 2022).

Biological target: T1, Low molecular weight phosphotyrosine protein phosphatase (Homo sapiens, UniProt P24666)
T1 sequence (P24666 whole entry): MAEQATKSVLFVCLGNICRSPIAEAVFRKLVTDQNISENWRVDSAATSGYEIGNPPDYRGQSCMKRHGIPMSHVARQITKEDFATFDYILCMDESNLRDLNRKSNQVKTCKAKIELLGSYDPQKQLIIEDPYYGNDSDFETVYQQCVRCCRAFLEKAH
Assay: LMPTP Primary Screening Protocol
Method: A listing of materials is provided: Item, source, catalog no. […] Prepare Reagents as described in section F. Recipe. 2. Using LabCyte Echo, transfer 60 nL from 2 mM test compound source plate into assay plate Col. 5-48 (final concentration of test compounds is 20 μM). 60 nL of DMSO should be transferred to col. 1-4 for positive and negative control wells. 3. Spin plates at 1000 rpm for 1 minute in centrifuge. 4. Using the Beckman Coulter Bioraptr, add 3 μL/well of control buffer to columns 1 and 2. 5. Using the Bioraptr, add 3 μL/well of enzyme solution to col. 3-48. 6. Using the Bioraptr, add 3 μL/well of substrate solution to col. 1-48. 7. Spin plates at 1000 rpm for 1 minute in centrifuge. 8. Incubate plates in the dark at room temperature for 50 minutes. 9. Read plates on PerkinElmer Viewlux using a FI protocol.

CC(C)(C)OC(=O)C1(c2cc(NCCCC3CCCNC3)c3ccccc3n2)C=c2ccccc2=N1 (stereo unspecified) [US11220486, Compound I98]
IC50: > 5 µM
